The values that follow come from paper PMC9108603, “Microbial Metabolite Inspired β‐Peptide Polymers Displaying Potent and Selective Antifungal Activity” (Advanced Science, 2022).

The test system of data set [1] is C. albicans. Description: MIC assay (in vitro antifungal assay). In kind it is cell-based, Candida albicans. The method, then:
(§1) In vitro antifungal assays. The MIC assays for C. albicans (K1, SC5314, Gu5, ATCC90028, R01, R02, R03 and R04 strains) and C. neoformans (H99, MYA737 and JEC21 strains) were conducted according to a previously described protocol. The cultured fungal cells were collected at 2.5 × 10^3 CFU/mL in RPMI 1640 medium to give the working suspension. Two- […]
Then 50 µL of the cell suspension was added to each well. Wells containing cells in RPMI without any polymer or antifungal drug were used as drug-free controls, and wells containing RPMI medium only were used as cell-free controls. The plate was gently stirred for 10 seconds and then incubated at 30 °C. After C. albicans and C. neoformans cells were incubated for 24 h and 48 h, respectively, fungal cell growth was checked visually. […]

Data set [2] has as its system C. neoformans. Description: MIC assay (in vitro antifungal assay). In kind it is cell-based. To be noted: Cryptococcus neoformans, 48 h. The method, then: as §1
plate to give 50 µL compound solution in each well. Then 50 µL of the cell suspension was added to each well. Wells containing cells in RPMI without any polymer or antifungal drug were used as drug-free controls, and wells containing RPMI medium only were used as cell-free controls. The plate was gently stirred for 10 seconds and then incubated at 30 °C. After C. albicans and C. neoformans cells were incubated for 24 h and 48 h, respectively, fungal cell growth was checked visually. […]

Data set [3] relates to C. albicans. Description: MFC assay, plating after the MIC test. Further: kills > 99.9%. In kind it is cell-based. Conditions: Candida albicans. The method, then:
as §1
(§2) Then 50 µL of the cell suspension was added to each well. Wells containing cells in RPMI without any polymer or antifungal drug were used as drug-free controls, and wells containing RPMI medium only were used as cell-free controls. The plate was gently stirred for 10 seconds and then incubated at 30 °C. After C. albicans and C. neoformans cells were incubated for 24 h and 48 h, respectively, fungal cell growth was checked visually. The MIC values were identified as the lowest concentration […]
(§3) The MFC assay for Candida and Cryptococcus was conducted after the MIC test.
(§4) An aliquot of 3 µL premixed suspension from each well was plated on the yeast extract-peptone-dextrose (YPD) agar. The plates were incubated at 30 °C for 24 h and 48 h, respectively, for C. albicans cells and C. neoformans cells. Then the plate was inspected visually for colony formation. […]

Data set [4] deals with C. neoformans. Briefly: MFC assay, plating after the MIC test. Further: kills > 99.9%. It is filed as cell-based. Conditions: Cryptococcus neoformans, 48 h. On the procedure:
as §1, §2, §3, §4

Another data set concerns C. albicans (R02 strain). Briefly: microbe, parasite or virus in culture. In kind it is cell-based, Candida albicans. To be noted: for MIC50: Candida albicans. The method, then:
Drug resistance studies. Drug resistance was induced by treating the C. albicans (R02 strain) repeatedly with antifungal agents. […]
albicans were tested for 30 passages of growth, which is long enough and adopted by many studies. C. albicans exposed to the 1/2 MIC concentration at the particular passage were re-grown to a logarithmic growth phrase and re-used for the subsequent passage’s MIC measurement for the same antifungal agent. Drug-resistant behavior of C. albicans was evaluated by recording the changes in the MIC compared to the original passage. All measurements were performed in duplicates. […]

For the next data set, the system named is A. Baumannii ATCC 747. Description: Antibacterial MIC test. In kind it is cell-based. Conditions: 1.0 × 10^5 CFU/mL in MH medium. An excerpt: (§5) aforementioned antifungal assay. Gram-positive bacteria ( S. aureus ATCC 6538, S.
For the next data set, the system named is E. coli ATCC 25922. Briefly: Antibacterial MIC test. It is filed as cell-based. To be noted: 1.0 × 10^5 CFU/mL in MH medium.
From the text: as §5

Data set [5] relates to K. pneumoniae ATCC 700603. Briefly: Antibacterial MIC test. It is filed as cell-based. Conditions: 1.0 × 10^5 CFU/mL in MH medium.
From the text: as §5

A further data set deals with human red blood cells. Description: Hemolysis assay. To be noted: human RBCs in TBS pH 7.2, 37 °C, 1 h, OD 405 nm, 2000 to 15.6 μg/mL, Triton X-100 as 100%. The method, then: as §5
The positive controls used in
Then, 100 μL of the RBC working
Molecular Devices Emax precision microplate reader. Measurements were performed in duplicate and repeated on three different days. The percentage of hemolysis at each polymer […]
and plotted against polymer concentration to give the dose-response curves for hemolysis for each polymer. The HC 10 value for each polymer was defined as the polymer concentration to cause 10% lysis of RBCs. All measurements were performed with three replicates.
Cytotoxicity assay. Cytotoxicity tests were performed on NIH 3T3 fibroblast cells, endothelial cells (HUVEC), macrophage (RAW264.7), liver cells (LO2), kidney cells (COS7) and enterocyte (NCM-460) using MTT assay. Cells were cultured in DMEM supplemented with 10% FBS, 5% penicillin, 2 mM L-glutamine and incubated at 37 °C in 5% CO 2. […]
(§6) concentrations ranging from 800 to 1.6 μg/mL. […] Then 85 µL of the supernatant from each well was transferred to the corresponding well in a new plate, followed by absorbance measurement at 570 nm on a plate reader. […] The percentage of cell viability in each test well, relative to the positive control (which defines 100%) w as calculated from [% fibroblast growth = (A polymer – Ablank)/(Acontrol

The next data set concerns various mammalian cells. Briefly: Cytotoxicity, MTT assay, summary over cell types. To be noted: NIH 3T3, HUVEC, RAW264.7, LO2, COS7, NCM‐460, 24 h. In kind it is cell-based. The method, then: (§7) Cytotoxicity assay. Cytotoxicity tests were performed on NIH 3T3 fibroblast cells, endothelial cells (HUVEC), macrophage (RAW264.7), liver cells (LO2), kidney cells (COS7) and enterocyte (NCM-460) using MTT assay. Cells were cultured in DMEM supplemented with 10% FBS, 5% penicillin, 2 mM L-glutamine and incubated at 37 °C in 5% CO 2. Cells were harvested and seeded onto 96-well plates at a density of 1.0 × 10^4 cells per well and incubated for 24 h. On each plate, wells containing growth medium only and cells in growth medium without any antifungal agent were used as the negative and positive control, […]
as §6, with “μg/mL. Medium in each cell-containing well was replaced with 100 μL of the corresponding polymer solution, and the plates were incubated at 37 °C for 24 h. Then, the solution in each well was switched to 100 µL MTT solution (1 mg/mL) and the plate was incubated in the dark at 37 °C for 4 h.” for “μg/mL.”, “Ablank)/(Acontrol – A blank) × 100]. […]” for “Ablank)/(Acontrol”

For data set [6], the system named is endothelial cells (HUVEC). Description: Cytotoxicity, MTT assay. It is filed as cell-based, human. To be noted: 24 h, 37 °C, 800 to 1.6 μg/mL, 50% cell viability. On the procedure: as §7
as §6, with “μg/mL. Medium in each cell-containing well was replaced with 100 μL of the corresponding polymer solution, and the plates were incubated at 37 °C for 24 h. Then, the solution in each well was switched to 100 µL MTT solution (1 mg/mL) and the plate was incubated in the dark at 37 °C for 4 h.” for “μg/mL.”, “Ablank)/(Acontrol – A blank) × 100]. […]” for “Ablank)/(Acontrol”

The subject of a further data set is B. subtilis BR151. Description: Antibacterial MIC test. It is filed as cell-based. To be noted: 1.0 × 10^5 CFU/mL in MH medium.
From the text: as §5

Another data set concerns S. aureus ATCC 6538. Briefly: Antibacterial MIC test. It is filed as cell-based. Conditions: 1.0 × 10^5 CFU/mL in MH medium.
From the text: as §5

In data set [7] the test system is S. epidermidis ATCC 49134. Description: Antibacterial MIC test. In kind it is cell-based. To be noted: 1.0 × 10^5 CFU/mL in MH medium.
From the text: as §5

For data set [8], the system named is Gram‐positive and Gram‐negative bacteria. Briefly: Antibacterial MIC test, summary over six bacteria. Conditions: S. aureus, S. epidermidis, B. subtilis, E. coli, A. baumannii, K. pneumoniae. In kind it is cell-based.
From the text: as §5

Values after ≈ are worked out from the molar mass of the structure shown. Read-outs that look alike come from different tables or passages of the source.

By MIC is commonly meant the lowest concentration found to suppress growth. Regarding `OC(Cn1cncn1)(Cn1cncn1)c1ccc(F)cc1F` [fluconazole], the MIC50 in the data set with C. albicans [1] (Candida albicans, 24 h, read-out: MIC50 (used for fluconazole) C. albicans Gu5) turned out to be 200 µg/mL (≈ 653 µM); with C. albicans [1] (Candida albicans, 24 h, read-out: MIC50 (used for fluconazole) C. albicans K1), 0.4 µg/mL (≈ 1.31 µM); with C. albicans [1] (Candida albicans, 24 h, read-out: MIC50 (used for fluconazole) C. albicans R01), 0.4 µg/mL (≈ 1.31 µM); with C. albicans [1] (Candida albicans, 24 h, read-out: MIC50 (used for fluconazole) C. albicans R02) it was 0.4 µg/mL (≈ 1.31 µM); with C. albicans [1] (Candida albicans, 24 h, read-out: MIC50 (used for fluconazole) C. albicans R03), 0.2 µg/mL (≈ 0.653 µM); with C. albicans [1] (Candida albicans, 24 h, read-out: MIC50 (used for fluconazole) C. albicans R04) it was 0.2 µg/mL (≈ 0.653 µM). For the same compound, the MIC50 was 0.2 µg/mL (≈ 0.653 µM) in the data set with C. albicans [1] (Candida albicans, ATCC90028, 24 h, read-out: MIC50 (used for fluconazole) C. albicans ATCC90028); 50 µg/mL (≈ 163 µM) in the data set on C. albicans [1] (Candida albicans, SC5314, 24 h, read-out: MIC50 (used for fluconazole) C. albicans SC5314); 6.3 µg/mL (≈ 20.6 µM) with C. neoformans [2] (read-out: MIC50 (row marked fluconazole*) C. neoformans H99); 12.5 µg/mL (≈ 40.8 µM) in the data set on C. neoformans [2] (read-out: MIC50 (row marked fluconazole*) C. neoformans JEC21); 6.3 µg/mL (≈ 20.6 µM) in the data set on C. neoformans [2] (read-out: MIC50 (row marked fluconazole*) C. neoformans MYA737); 1.6 µg/mL (≈ 5.22 µM) with C. albicans (R02 strain) (read-out: MIC50 after 30 passages). In addition, the MIC50 with C. albicans (R02 strain) (read-out: MIC50 before passaging) was 0.2 µg/mL (≈ 0.653 µM). Besides, in the data set with C. albicans [1] (Candida albicans, read-out: MIC of fluconazole (complete inhibition), all strains of C. albicans), the minimal inhibitory concentration (MIC) is over 200 µg/mL. Moreover, the MFC in the data set on C. albicans [3] (24 h, read-out: MFC C. albicans Gu5) was over 200 µg/mL; with C. albicans [3] (24 h, read-out: MFC C. albicans K1), over 200 µg/mL; with C. albicans [3] (24 h, read-out: MFC C. albicans R01), over 200 µg/mL; in the data set with C. albicans [3] (24 h, read-out: MFC C. albicans R02), over 200 µg/mL; in the data set on C. albicans [3] (24 h, read-out: MFC C. albicans R03) it was over 200 µg/mL; in the data set on C. albicans [3] (24 h, read-out: MFC C. albicans R04) it was over 200 µg/mL. For the same compound, the MFC in the data set with C. albicans [3] (ATCC90028, 24 h, read-out: MFC C. albicans ATCC90028) is over 200 µg/mL; in the data set with C. albicans [3] (SC5314, 24 h, read-out: MFC C. albicans SC5314), over 200 µg/mL; with C. neoformans [4] (read-out: MFC C. neoformans H99), 6.3 µg/mL (≈ 20.6 µM); in the data set with C. neoformans [4] (read-out: MFC C. neoformans JEC21), 12.5 µg/mL (≈ 40.8 µM); in the data set with C. neoformans [4] (read-out: MFC C. neoformans MYA737) it was 6.3 µg/mL (≈ 20.6 µM). Besides, in the data set with C. albicans (R02 strain) (C. albicans R02, continuous treatment with 0.5 × MIC50), the “Increase of MIC50 after 30 passages” value is reported as “eightfolds”.
For polymyxin B, the “MIC A. baumannii” value with A. Baumannii ATCC 747 was 0.2 µg/mL. The “MIC E. coli” value in the data set on E. coli ATCC 25922 amounted to 0.2 µg/mL. The “MIC K. pneumoniae” value in [5] amounted to 0.8 µg/mL.
Take poly(DL‐diaminopropionic acid) [PDAP5]: in the data set with human red blood cells, the “HC10 (concentration to cause 10% hemolysis)” value worked out at 1000 µg/mL. The “IC50 over six mammalian cell types (range)” value with various mammalian cells fell in the range of 340 to 800 µg/mL.
In the case of poly(DL‐diaminopropionic acid) [PDAP10], in [6], the “IC50 HUVEC” value was 675 µg/mL.
ε‐poly‐lysine [ε-PL]: in the data set with C. albicans [1] (K+ up to 20 × 10^−3 M, C. albicans K1), the “Effect of increasing K+ on antifungal activity” value is reported as “didn't affect”. For the same compound, in the data set with C. albicans [1] (Na+ 103 mM, K+ 5.4 mM), the “MIC C. albicans K1, standard MIC test in RPMI 1640” value is 400 µg/mL. In the data set on C. albicans [1] (Na+ 150 mM, K+ 5.4 mM), the “MIC C. albicans K1, physiological salt concentration” value was determined as 1600 μg/mL. Moreover, in the data set with C. albicans [1] (Na+ 200 mM, K+ 5.4 mM), the “MIC C. albicans K1, Na+ ↑” value is over 1600 µg/mL. The “MIC against C. albicans (Figure 1a)” value with C. albicans [1] (approximate value printed in the design figure) is recorded as ~ 400 μg/mL. Also, the “MIC against three strains of C. albicans (range)” value against C. albicans [1] (range over three strains, Figure 2d) lay within 200 to 400 µg/mL. The “MIC A. baumannii” value against A. Baumannii ATCC 747 amounted to 6.3 µg/mL. For the same compound, the “MIC B. subtilis” value in the data set with B. subtilis BR151 is 1.6 µg/mL. Besides, the “MIC E. coli” value against E. coli ATCC 25922 came to 6.3 µg/mL. In data set [5], the “MIC K. pneumoniae” value stood at 6.3 µg/mL. Further, in the data set with S. aureus ATCC 6538, the “MIC S. aureus” value was found to be 3.1 µg/mL. Further, in [7], the “MIC S. epidermidis” value turned out to be 3.1 µg/mL. The “MIC against the six bacteria (summary)” value in [8] fell in the range of 1.6 to 6.3 µg/mL.
